The values below come from patent publication US7300946B2, “N-(substituted arylmethyl)-4-(disubstituted methyl) piperidines and pyridines” (Bayer CropScience AG, priority 2002, dated 2007).

SMILES strings stand for the structures.

The experiment deals with tobacco budworm (Heliothis virescens [Fabricius]). Put plainly: surface-treated diet test against the tobacco budworm. The experiment is classed as in vivo. The following applies: tobacco budworm second instar larvae, surface-treated diet, 0.25 millimoles of candidate insecticide on the surface of the diet, five-day exposure; for Percent Mortality: compared to total number of insects infested; for Percent Growth Inhibition: inhibition of insect weight relative to untreated controls. An outline of the steps: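 Wheat germ artificial diet surface-treated with 40 µL of 50 mM DMSO stock diluted 1:7 in 1:1 water/acetone (0.25 millimolar on diet), or sub-multiples for rate tests. One second-instar larva per well, 25° C, 60% RH, 5 days; percent weight inhibition vs DMSO controls and percent mortality.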

As to `CCCOc1ccc(CN2CCC(C(OC(=O)Nc3ccc(C(F)(F)F)cc3)c3cccc(C(F)(F)F)c3)CC2)cc1` (stereo not drawn) [Compound 489], the “Percent Mortality” value worked out at 100% and the “Percent Growth Inhibition” value is recorded as 100%.

As for `CCCOc1ccc(CN2CCC(C(OC(=O)Nc3ccc(Cl)cc3)c3ccc(C(F)(F)F)cc3)CC2)cc1` (stereo not drawn) [Compound 490], the “Percent Mortality” value was determined as 100% and the “Percent Growth Inhibition” value is given as 100%.

Consider `CCCOc1ccc(CN2CCC(C(OC(=O)Nc3cc(F)cc(F)c3)c3ccc(C(F)(F)F)cc3)CC2)cc1` (stereo not drawn) [Compound 491], for which the “Percent Mortality” value came out at 100% and the “Percent Growth Inhibition” value is on record as 100%.

In the case of `CC(C)OC(=O)c1ccc(CN2CCC(C(OC(=O)Nc3ccc(Cl)cc3)c3ccc(C(F)(F)F)cc3)CC2)cc1` (stereo not drawn) [Compound 492], the “Percent Mortality” value stood at 100% and the “Percent Growth Inhibition” value was 100%.

For the molecule `CC(C)OC(=O)c1ccc(CN2CCC(C(OC(=O)Nc3cc(F)cc(F)c3)c3ccc(C(F)(F)F)cc3)CC2)cc1` (stereo not drawn) [Compound 493], the “Percent Mortality” value came out at 100% and the “Percent Growth Inhibition” value is 100%.

As to `CC(=O)Nc1ccc(CN2CCC(C(OC(=O)Nc3ccc(Cl)cc3)c3ccc(C(F)(F)F)cc3)CC2)cc1` (stereo not drawn) [Compound 494], the “Percent Mortality” value is given as 0% and the “Percent Growth Inhibition” value is on record as 77%.

As for `CC(=O)Nc1ccc(CN2CCC(C(OC(=O)Nc3cc(F)cc(F)c3)c3ccc(C(F)(F)F)cc3)CC2)cc1` (stereo not drawn) [Compound 495], the “Percent Mortality” value came out at 0% and the “Percent Growth Inhibition” value is given as 98%.

Consider `CC(C)C(=O)Nc1ccc(CN2CCC(C(OC(=O)Nc3cc(F)cc(F)c3)c3ccc(C(F)(F)F)cc3)CC2)cc1` (stereo not drawn) [Compound 496], for which the “Percent Mortality” value is recorded as 100% and the “Percent Growth Inhibition” value is on record as 100%.

Turning to `CC(C)(C)C(=O)Nc1ccc(CN2CCC(C(OC(=O)Nc3cc(F)cc(F)c3)c3ccc(C(F)(F)F)cc3)CC2)cc1` (stereo not drawn) [Compound 497], the “Percent Mortality” value was determined as 17% and the “Percent Growth Inhibition” value was found to be 100%.

As to `COC(=O)Nc1ccc(CN2CCC(C(OC(=O)Nc3cc(F)cc(F)c3)c3ccc(C(F)(F)F)cc3)CC2)cc1` (stereo not drawn) [Compound 498], the “Percent Mortality” value stood at 100% and the “Percent Growth Inhibition” value was determined as 100%.

As for `CCOC(=O)Nc1ccc(CN2CCC(C(OC(=O)Nc3cc(F)cc(F)c3)c3ccc(C(F)(F)F)cc3)CC2)cc1` (stereo not drawn) [Compound 499], the “Percent Mortality” value is given as 100% and the “Percent Growth Inhibition” value is recorded as 100%.

As to `CC(C)OC(=O)Nc1ccc(CN2CCC(C(OC(=O)Nc3cccc(F)c3)c3ccc(Cl)cc3)CC2)cc1` (stereo not drawn) [Compound 501], the “Percent Mortality” value was 100% and the “Percent Growth Inhibition” value is given as 100%.

Regarding `CC(C)OC(=O)Nc1ccc(CN2CCC(C(OC(=O)Nc3cc(F)cc(F)c3)c3ccc(Cl)cc3)CC2)cc1` (stereo not drawn) [Compound 502], the “Percent Mortality” value came out at 100% and the “Percent Growth Inhibition” value is 100%.

For `CC(C)OC(=O)Nc1ccc(CN2CCC(C(OC(=O)Nc3ccc(Cl)cc3)c3ccc(F)cc3)CC2)cc1` (stereo not drawn) [Compound 503], the “Percent Mortality” value was determined as 100% and the “Percent Growth Inhibition” value is listed as 100%.

In the case of `CC(C)OC(=O)Nc1ccc(CN2CCC(C(OC(=O)Nc3cccc(F)c3)c3ccc(F)cc3)CC2)cc1` (stereo not drawn) [Compound 504], the “Percent Mortality” value is listed as 100% and the “Percent Growth Inhibition” value is 100%.

Turning to `CC(C)OC(=O)Nc1ccc(CN2CCC(C(OC(=O)Nc3cc(F)cc(F)c3)c3ccc(F)cc3)CC2)cc1` (stereo not drawn) [Compound 505], the “Percent Mortality” value came to 100% and the “Percent Growth Inhibition” value was found to be 100%.

Turning to `CC(C)OC(=O)Nc1ccc(CN2CCC(C(OC(=O)Nc3ccc(Cl)cc3)c3ccc(Cl)cc3Cl)CC2)cc1` (stereo not drawn) [Compound 506], the “Percent Mortality” value is 100% and the “Percent Growth Inhibition” value is reported as 100%.

With `CC(C)OC(=O)Nc1ccc(CN2CCC(C(OC(=O)Nc3cc(F)cc(F)c3)c3ccc(Cl)cc3Cl)CC2)cc1` (stereo not drawn) [Compound 507], the “Percent Mortality” value is on record as 100% and the “Percent Growth Inhibition” value was 100%.

For `CC(C)OC(=O)Nc1ccc(CN2CCC(C(OC(=O)Nc3ccc(Cl)cc3)c3cc(Cl)cc(Cl)c3)CC2)cc1` (stereo not drawn) [Compound 508], the “Percent Mortality” value is reported as 100% and the “Percent Growth Inhibition” value is on record as 100%.

As for `CC(C)OC(=O)Nc1ccc(CN2CCC(C(OC(=O)Nc3cccc(F)c3)c3cc(Cl)cc(Cl)c3)CC2)cc1` (stereo not drawn) [Compound 509], the “Percent Mortality” value turned out to be 100% and the “Percent Growth Inhibition” value is given as 100%.

Regarding `CC(C)OC(=O)Nc1ccc(CN2CCC(C(OC(=O)Nc3cc(F)cc(F)c3)c3cc(Cl)cc(Cl)c3)CC2)cc1` (stereo not drawn) [Compound 510], the “Percent Mortality” value amounted to 100% and the “Percent Growth Inhibition” value was 100%.

`CC(C)OC(=O)Nc1ccc(CN2CCC(C(OC(=O)Nc3cc(F)cc(F)c3)c3ccc(C(F)(F)F)cc3)CC2)cc1` (stereo not drawn) [Compound 512]: the “Percent Mortality” value was determined as 100% and the “Percent Growth Inhibition” value is 100%.

Regarding `CC(C)OC(=O)Nc1ccc(CN2CCC(C(OC(=O)Nc3ccc(Cl)cc3)c3ccc(OC(F)(F)F)cc3)CC2)cc1` (stereo not drawn) [Compound 513], the “Percent Mortality” value was 100% and the “Percent Growth Inhibition” value was 100%.

Regarding `CC(C)OC(=O)Nc1ccc(CN2CCC(C(OC(=O)Nc3cccc(F)c3)c3ccc(OC(F)(F)F)cc3)CC2)cc1` (stereo not drawn) [Compound 514], the “Percent Mortality” value is 100% and the “Percent Growth Inhibition” value is reported as 100%.

Consider `CC(C)OC(=O)Nc1ccc(CN2CCC(C(OC(=O)Nc3cc(F)cc(F)c3)c3ccc(OC(F)(F)F)cc3)CC2)cc1` (stereo not drawn) [Compound 515], for which the “Percent Mortality” value turned out to be 100% and the “Percent Growth Inhibition” value came to 100%.

For `COC(=O)N(c1ccc(CN2CCC(C(OC(=O)Nc3cc(F)cc(F)c3)c3ccc(C(F)(F)F)cc3)CC2)cc1)c1ccccn1` (stereo not drawn) [Compound 516], the “Percent Mortality” value is on record as 100% and the “Percent Growth Inhibition” value was 100%.

Take `CCNC(=O)Nc1ccc(CN2CCC(C(OC(=O)Nc3cc(F)cc(F)c3)c3ccc(C(F)(F)F)cc3)CC2)cc1` (stereo not drawn) [Compound 517]: the “Percent Mortality” value is reported as 0% and the “Percent Growth Inhibition” value worked out at 86%.

With `CCNC(=S)Nc1ccc(CN2CCC(C(OC(=O)Nc3cc(F)cc(F)c3)c3ccc(C(F)(F)F)cc3)CC2)cc1` (stereo not drawn) [Compound 518], the “Percent Mortality” value was 17% and the “Percent Growth Inhibition” value came out at 96%.

In the case of `CN(C)C(=O)Nc1ccc(CN2CCC(C(OC(=O)Nc3cc(F)cc(F)c3)c3ccc(C(F)(F)F)cc3)CC2)cc1` (stereo not drawn) [Compound 519], the “Percent Mortality” value is on record as 17% and the “Percent Growth Inhibition” value was found to be 93%.

As for `CNC(=O)Oc1ccc(CN2CCC(C(OC(=O)Nc3ccccc3)c3ccc(C(F)(F)F)cc3)CC2)cc1` (stereo not drawn) [Compound 521], the “Percent Mortality” value was 100% and the “Percent Growth Inhibition” value was 100%.

Regarding `CCON=Cc1ccc(CN2CCC(C(OC(=O)Nc3ccc(Cl)cc3)c3ccc(Cl)cc3)CC2)cc1` (stereo not drawn) [Compound 523], the “Percent Mortality” value is listed as 100% and the “Percent Growth Inhibition” value turned out to be 100%.

Consider `CCON=Cc1ccc(CN2CCC(C(OC(=O)Nc3cccc(F)c3)c3ccc(Cl)cc3)CC2)cc1` (stereo not drawn) [Compound 524], for which the “Percent Mortality” value is on record as 100% and the “Percent Growth Inhibition” value amounted to 100%.

As to `CCON=Cc1ccc(CN2CCC(C(OC(=O)Nc3cc(F)cc(F)c3)c3ccc(Cl)cc3)CC2)cc1` (stereo not drawn) [Compound 525], the “Percent Mortality” value was 100% and the “Percent Growth Inhibition” value was 100%.
